Measured values as given in ChEMBL document CHEMBL1201862, “PubChem BioAssay data set” (2004).
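In this assay, cells in 96-well plates receive the compound at five concentrations for 48 hours. Endpoints are linearly interpolated between the surrounding concentrations. Abbreviation: GI50, concentration required for 50% inhibition of growth.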 Calls of active or inactive are those of the source. Cut-off read from the data, not from the text of the source: active = GI50 up to about 1.1 µM and inactive = higher.

Key:
Experiment in all cases: growth of human tumour cells (NCI), 48 h
UACC-257 = tested on: UACC-257
MDA-N = tested on: MDA-N
BT-549 = tested on: BT-549
A549 = tested on: A549
OVCAR-3 = tested on: OVCAR-3
K562 = tested on: K562
NCI-H226 = tested on: NCI-H226
RPMI-8226 = tested on: RPMI-8226
ACHN = tested on: ACHN
LOX IMVI = tested on: LOX IMVI
T47D = tested on: T47D
HCT-116 = tested on: HCT-116
MCF7 = tested on: MCF7
COLO 205 = tested on: COLO 205
SNB-19 = tested on: SNB-19
SNB-75 = tested on: SNB-75
SN12C = tested on: SN12C
SF-295 = tested on: SF-295
NCI-H460 = tested on: NCI-H460
786-0 = tested on: 786-0
NCI/ADR-RES = tested on: NCI/ADR-RES
SK-MEL-28 = tested on: SK-MEL-28
U-251 = tested on: U-251
OVCAR-5 = tested on: OVCAR-5
IGROV-1 = tested on: IGROV-1
Hs-578T = tested on: Hs-578T
SR = tested on: SR
MOLT-4 = tested on: MOLT-4
TK-10 = tested on: TK-10
OVCAR-4 = tested on: OVCAR-4
HCT-15 = tested on: HCT-15
UO-31 = tested on: UO-31
SK-OV-3 = tested on: SK-OV-3
PC-3 = tested on: PC-3
MDA-MB-231 = tested on: MDA-MB-231
KM12 = tested on: KM12
HCC 2998 = tested on: HCC 2998
SW-620 = tested on: SW-620
OVCAR-8 = tested on: OVCAR-8
NCI-H23 = tested on: NCI-H23
CAKI-1 = tested on: CAKI-1
HOP-62 = tested on: HOP-62
MDA-MB-435 = tested on: MDA-MB-435
DU-145 = tested on: DU-145
SF-539 = tested on: SF-539
M14 = tested on: M14
Malme-3M = tested on: Malme-3M
SF-268 = tested on: SF-268
SK-MEL-2 = tested on: SK-MEL-2
UACC-62 = tested on: UACC-62
HT-29 = tested on: HT-29
SK-MEL-5 = tested on: SK-MEL-5
EKVX = tested on: EKVX
A498 = tested on: A498
HL-60 = tested on: HL-60
HOP-92 = tested on: HOP-92
RXF 393 = tested on: RXF 393
NCI-H522 = tested on: NCI-H522

For C[n+]1c2ccccc2c(C(=O)Nc2ccc(S(=O)(=O)Nc3ccnn3-c3ccccc3)cc2)c2ccccc21, the GI50 (UACC-257) was > 100 µM (inactive), the GI50 (MDA-N) was > 100 µM (inactive) and the GI50 (BT-549) was > 100 µM (inactive). For the same compound, the GI50 (A549) was > 100 µM (inactive), the GI50 (OVCAR-3) was > 100 µM (inactive) and the GI50 (K562) was > 100 µM (inactive). The GI50 (NCI-H226) was > 100 µM (inactive), the GI50 (RPMI-8226) was > 100 µM (inactive) and the GI50 (ACHN) was > 100 µM (inactive). The GI50 (LOX IMVI) was > 100 µM (inactive), the GI50 (T47D) was > 100 µM (inactive) and the GI50 (HCT-116) was > 100 µM (inactive). For the same compound, the GI50 (MCF7) was > 100 µM (inactive), the GI50 (COLO 205) was > 100 µM (inactive) and the GI50 (SNB-19) was > 100 µM (inactive). The GI50 (SNB-75) was > 100 µM (inactive), the GI50 (SN12C) was > 100 µM (inactive) and the GI50 (SF-295) was > 100 µM (inactive). The GI50 (NCI-H460) was > 100 µM (inactive), the GI50 (786-0) was > 100 µM (inactive) and the GI50 (NCI/ADR-RES) was 20.7 µM (inactive). For the same compound, the GI50 (SK-MEL-28) was > 100 µM (inactive), the GI50 (U-251) was > 100 µM (inactive) and the GI50 (OVCAR-5) was > 100 µM (inactive). For the same compound, the GI50 (IGROV-1) was > 100 µM (inactive), the GI50 (Hs-578T) was > 100 µM (inactive) and the GI50 (SR) was > 100 µM (inactive). For the same compound, the GI50 (MOLT-4) was > 100 µM (inactive), the GI50 (TK-10) was > 100 µM (inactive) and the GI50 (OVCAR-4) was > 100 µM (inactive). For the same compound, the GI50 (HCT-15) was over 100 µM, the GI50 (UO-31) was > 100 µM (inactive) and the GI50 (SK-OV-3) was > 100 µM (inactive). The GI50 (PC-3) was > 100 µM (inactive), the GI50 (MDA-MB-231) was > 100 µM (inactive) and the GI50 (KM12) was > 100 µM (inactive). The GI50 (HCC 2998) was > 100 µM (inactive), the GI50 (SW-620) was > 100 µM (inactive) and the GI50 (OVCAR-8) was > 100 µM (inactive). The GI50 (NCI-H23) was > 100 µM (inactive), the GI50 (CAKI-1) was > 100 µM (inactive) and the GI50 (HOP-62) was > 100 µM (inactive). The GI50 (MDA-MB-435) was > 100 µM (inactive), the GI50 (DU-145) was > 100 µM (inactive) and the GI50 (SF-539) was > 100 µM (inactive). For the same compound, the GI50 (M14) was > 100 µM (inactive), the GI50 (Malme-3M) was > 100 µM (inactive) and the GI50 (SF-268) was > 100 µM (inactive). The GI50 (SK-MEL-2) was > 100 µM (inactive), the GI50 (UACC-62) was > 100 µM (inactive) and the GI50 (HT-29) was > 100 µM (inactive). For the same compound, the GI50 (SK-MEL-5) was 69.2 µM (inactive) and the GI50 (EKVX) was > 100 µM (inactive).
In the case of CC(C)(C)OC(=O)NCC(=O)N1CCCN(C(=O)CNC(=O)OC(C)(C)C)CC1, the GI50 (UACC-257) is reported as > 100 µM (inactive), the GI50 (MDA-N) is reported as > 100 µM (inactive) and the GI50 (BT-549) is reported as > 100 µM (inactive). The GI50 (A498) was > 100 µM (inactive), the GI50 (A549) was > 100 µM (inactive) and the GI50 (OVCAR-3) was > 100 µM (inactive). The GI50 (K562) was > 100 µM (inactive), the GI50 (NCI-H226) was > 100 µM (inactive) and the GI50 (RPMI-8226) was > 100 µM (inactive). The GI50 (ACHN) was > 100 µM (inactive), the GI50 (LOX IMVI) was > 100 µM (inactive) and the GI50 (T47D) was > 100 µM (inactive). The GI50 (HCT-116) was > 100 µM (inactive), the GI50 (MCF7) was > 100 µM (inactive) and the GI50 (COLO 205) was > 100 µM (inactive). The GI50 (SNB-19) was > 100 µM (inactive), the GI50 (SNB-75) was > 100 µM (inactive) and the GI50 (SN12C) was > 100 µM (inactive). The GI50 (SF-295) was > 100 µM (inactive), the GI50 (HL-60) was > 100 µM (inactive) and the GI50 (NCI-H460) was > 100 µM (inactive). For the same compound, the GI50 (786-0) was > 100 µM (inactive), the GI50 (NCI/ADR-RES) was > 100 µM (inactive) and the GI50 (SK-MEL-28) was > 100 µM (inactive). For the same compound, the GI50 (U-251) was > 100 µM (inactive), the GI50 (OVCAR-5) was > 100 µM (inactive) and the GI50 (IGROV-1) was > 100 µM (inactive). For the same compound, the GI50 (Hs-578T) was > 100 µM (inactive), the GI50 (MOLT-4) was > 100 µM (inactive) and the GI50 (TK-10) was > 100 µM (inactive). The GI50 (OVCAR-4) was > 100 µM (inactive), the GI50 (HCT-15) was over 100 µM and the GI50 (UO-31) was > 100 µM (inactive). For the same compound, the GI50 (SK-OV-3) was > 100 µM (inactive), the GI50 (PC-3) was > 100 µM (inactive) and the GI50 (MDA-MB-231) was > 100 µM (inactive). For the same compound, the GI50 (HOP-92) was > 100 µM (inactive), the GI50 (KM12) was > 100 µM (inactive) and the GI50 (HCC 2998) was > 100 µM (inactive). The GI50 (SW-620) was > 100 µM (inactive), the GI50 (OVCAR-8) was > 100 µM (inactive) and the GI50 (NCI-H23) was > 100 µM (inactive). The GI50 (CAKI-1) was > 100 µM (inactive), the GI50 (RXF 393) was > 100 µM (inactive) and the GI50 (HOP-62) was > 100 µM (inactive). For the same compound, the GI50 (MDA-MB-435) was > 100 µM (inactive), the GI50 (DU-145) was > 100 µM (inactive) and the GI50 (M14) was > 100 µM (inactive). For the same compound, the GI50 (Malme-3M) was > 100 µM (inactive), the GI50 (SF-268) was > 100 µM (inactive) and the GI50 (SK-MEL-2) was > 100 µM (inactive). For the same compound, the GI50 (UACC-62) was > 100 µM (inactive), the GI50 (HT-29) was > 100 µM (inactive) and the GI50 (SK-MEL-5) was > 100 µM (inactive). The GI50 (NCI-H522) was > 100 µM (inactive) and the GI50 (EKVX) was > 100 µM (inactive).
